Reference: patent US20030153571A1 (priority 2002, published 2003)

How the values were obtained:
[1] = target: T1, NMDA receptor glycine site (Rattus norvegicus, UniProt P35439); test: Test A: Inhibition of binding of [3H]-MDL105,519 to brain membranes; conditions: inhibition of [3H]MDL105,519 binding
T1 construct: to brain membranes bearing the receptor; tissue Analytical Biological Services Inc; host or cells: rat brain membranes (cerebral cortex and hippocampus, male Sprague Dawley rats)
From the text: Test A: Inhibition of binding of [^3H]-MDL105,519:
Binding of compounds to the NMDA receptor glycine site may be assessed by measuring the ability of test compounds to inhibit the binding of tritiated MDL105,519 to brain membranes bearing the receptor.
Briefly, fresh brain tissue including cerebral cortex and hippocampus from male Sprague Dawley rats was homogenized in 0.32 M sucrose and centrifuged at low speed to separate cellular membranes from other cellular components. The membranes were then washed 3 times using deionized water, followed by treatment with 0.04% Triton X-100. Finally, membranes were washed six times in 50 mM Tris citrate buffer, pH 7.4, and frozen at −80° C. until use.
[^3H]MDL105,519 (72 Ci/mmol) was purchased from Amersham. Cold MDL105,519 was purchased from Sigma/RBI. […] On the day of the experiment, brain membranes were thawed at room temperature and suspended in 50 mM tris acetate buffer, pH 7.4 (“TAB”). Seventy-five micro grams per milliliter protein (by using the BioRad dye) were used for competition binding. The experiments were carried out using 96-well plates. […] Non specific binding was determined by using 100 μM of unlabeled MDL105,519. […] After incubation, unbound [^3H]MDL105,519 was removed by filtration onto GF/B Unifilter plates using a Packard harvester. Filters were washed four times with ice cold TAB (total of 1.2 mL buffer). The plates were dried overnight at room temperature and bound radioactivity was measured on a Packard TopCount after the addition of 45 μL per well of the MICROSCINT O.
Human Brain Membranes: Human brain membranes were obtained from Analytical Biological Services Inc., and assays were performed as described for rat membranes.
Data analysis: Data was analyzed using a Microsoft Excel spreadsheet and GraphPad Prizm software and potency of compounds is expressed as the Ki (nM).

[2] = test system: CCI rats (thermal hyperalgesia); test: Test C: Neuropathic pain model (Chronic Constriction Injury), thermal hyperalgesia paw-withdrawal test; format: in vivo, rat; conditions: oral, three times daily for 5 days
From the text: Test C: Neuropathic pain model (Chronic Constriction Injury):
The anti-hyperalgesic properties of a compound may be tested with the Chronic Constriction Injury (“CCI”) model. The test is a model for neuropathic pain associated with nerve injuries that can arise directly from trauma and compression, or indirectly from a wide range of diseases such as infection, cancer, metabolic conditions, toxins, nutritional deficiencies, immunological dysfunction, and musculoskeletal changes. In the model a unilateral peripheral hyperalgesia is produced in rats by nerve ligation (G. J. Bennett, et al., Pain 33, 87-107 (1988)).
Procedurally, Sprague-Dawley rats (250-350 g) are anesthetized with sodium pentobarbital and the common sciatic nerve is exposed at the level of the mid thigh by blunt dissection through the biceps femoris. […] Thermal hyperalgesia is measured using a paw-withdrawal test (K. Hargreaves, et al., Pain 32, 77-88 (1988)). […] The latencies for the withdrawal reflex in both hind paws are recorded.
Injured paws with ligated nerves show shorter paw withdrawal latencies compared to the uninjured or sham operated paws. Responses to test compounds are evaluated at different times after oral administration to determine the onset and duration of compound effect. […] Paw withdrawal latencies are measured each day 10 min before and 2 or 3 hr. after the first daily dose. […]

[3] = brain membranes (rat and human membranes described; table does not say which)

Compound	Ki [1, 3] [µM]	also measured
CC(c1ccco1)n1nc(O)c2[nH]c3cc(Cl)ccc3c(=O)c2c1=O (racemic)	0.153	
CCCC(c1ccccn1)n1nc(O)c2[nH]c3cc(Cl)ccc3c(=O)c2c1=O (racemic) [Ex. 6, (+/−)-7-Chloro-4-hydroxy-2-(butyl-1-(2-pyridyl))-1,2,5,10-tetrahydropyridazino[4,5-b]quinoline-1,10-dione methanesulfonate]		Ki ([1]; brain membranes): > 10 µM
CC(C)C(c1ccncc1)n1nc(O)c2[nH]c3cc(Cl)ccc3c(=O)c2c1=O (racemic) [Ex. 8, (+/−)-7-Chloro-4-hydroxy-2-(propyl-(2-methyl-1-(4-pyridyl))-1,2,5,10-tetrahydropyridazino[4,5-b]quinoline-1,10-dione methanesulfonate]	5.23	
CC(C)CC(c1ccncc1)n1[nH]c(=O)c2nc3cc(Cl)ccc3c(O)c2c1=O (racemic) [Ex. 12, (+/−)-7-Chloro-4-hydroxy-2-(3-methyl-1-(4-pyridyl)butyl)-1,2,5,10-tetrahydropyridazino[4,5-b]quinoline-1,10-dione]	5.23	
CS(=O)(=O)O.O=c1c2ccc(Cl)cc2[nH]c2c(O)nn(CCc3ccncc3)c(=O)c12 [Ex. 2, (+/−)-7-Chloro-4-hydroxy-2-(4-pyridyleth-1-yl)-1,2,5,10-tetrahydropyridazino[4,5-b]quinoline-1,10-dione methanesulfonate]		melting point: 245 to 248 °C
(+/−)-7-Chloro-4-hydroxy-2-(4-pyridylprop-1-yl)-1,2,5,10-tetrahydropyridazino[4,5-b]quinoline-1,10-dione sodium methanesulfonate [Ex. 3]	1.94	Test C %Inh. (percent decrease in hyperalgesia at the MED) ([2]; at the MED, compared to vehicle-treated animals): 10%; Test C MED (minimum effective dose) ([2]; dose giving statistically significant decrease in hyperalgesia): 30 mg/kg/day

More lines, in order of falling Ki [1, 3], values ahead:

Ki [1, 3] [µM]	Compound	also measured
4.34	CCCC(c1ccncc1)n1nc(O)c2[nH]c3cc(Cl)ccc3c(=O)c2c1=O (racemic) [Ex. 7, (+/−)-7-Chloro-4-hydroxy-2-(butyl-1-(4-pyridyl))-1,2,5,10-tetrahydropyridazino[4,5-b]quinoline-1,10-dione]	
1.81	CCC(c1ccccn1)n1[nH]c(=O)c2nc3cc(Cl)ccc3c(O)c2c1=O (racemic) [Ex. 4, (+/−)-7-Chloro-4-hydroxy-2-(propyl-1-(2-pyridyl))-1,2,5,10-tetrahydropyridazino [4,5-b]quinoline-1,10-dione methanesulfonate]	
0.692	CC(c1ccc(C#N)s1)n1nc(O)c2[nH]c3cc(Cl)ccc3c(=O)c2c1=O (centres unmarked) [Ex. 22, 7-Chloro-4-hydroxy-2-(1-(5-cyanothien-2-yl)ethyl)-1,2,5,10-tetrahydropyridazino[4,5-b]quinoline-1,10-dione]	
0.676	O=c1c2ccc(Cl)cc2[nH]c2c(O)nn(CCc3cccnc3Cl)c(=O)c12 [Ex. 15, (+/−)-7-Chloro-4-hydroxy-2-(2-chloro-pyrid-3-yl)ethyl-1,2,5,10-tetrahydropyridazino[4,5-b]quinoline-1,10-dione]	
0.568	COc1cnccc1C(C)n1nc(O)c2[nH]c3cc(Cl)ccc3c(=O)c2c1=O (racemic) [Ex. 13, (+/−)7-Chloro-4-hydroxy-2-(1-(3-methoxypyrid-4-yl))ethyl-1,2,5,10-tetrahydropyridazino[4,5-b]quinoline-1,10-dione methanesulfonate]	
0.336	CC(c1cnccn1)n1nc(O)c2[nH]c3cc(Cl)ccc3c(=O)c2c1=O (centres unmarked) [Ex. 23, 7-Chloro-4-hydroxy-2-(ethyl-1-(pyrazin-2-yl))-1,2,5,10-tetrahydropyridazino [4,5-b]quinoline-1,10-dione]	
0.312	COc1ccc(C(C)n2nc(O)c3[nH]c4cc(Cl)ccc4c(=O)c3c2=O)cn1 (racemic) [Ex. 14, (+/−)-7-Chloro-4-hydroxy-2-(1-(2-methoxypyrid-5-yl))ethyl-1,2,5,10-tetrahydropyridazino[4,5-b]quinoline-1,10-dione methanesulfonate]	
0.177	CC(c1cc2ccccc2s1)n1nc(O)c2[nH]c3cc(Cl)ccc3c(=O)c2c1=O (centres unmarked) [Ex. 21]	
0.051	CC(c1ccnc(Cl)c1)n1nc(O)c2[nH]c3cc(Cl)ccc3c(=O)c2c1=O (racemic) [Ex. 16, (+/−)-7-Chloro-1-hydroxy-2-(2-chloro(4-pyridyl)ethyl)-1,2,5,10-tetrahydropyridazino[4,5-b]quinoline-1,10-dione]	
